Source: the supplement of paper PMC10307832

What was measured:
Assay in all cases: relative viability (nuclei count vs DMSO), 5 days (fraction); higher = more cells survive
ABC-1 = test system: ABC-1
In short: (§1)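 Relative viability was taken as the ratio of nuclei in treated wells to nuclei in vehicle wells. Lung cancer cell lines in 1536-well plates received compounds by pin tool one day after seeding, either one drug alone or a fixed anchor-drug dose plus five library-drug doses (not always all listed) in √10 steps. Nuclei were counted on 4× images after 5 days of treatment, and values are medians of duplicate plates.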

COR-L23 = test system: COR-L23
In short: as §1

ChaGo-K-1 = test system: ChaGo-K-1
In short: as §1

EMC-BAC-2 = test system: EMC-BAC-2
In short: as §1

HARA = test system: HARA
In short: as §1

HCC-15 = test system: HCC-15
In short: as §1

HCC-366 = test system: HCC-366
In short: as §1

HCC-78 = test system: HCC-78
In short: as §1

HOP-62 = test system: HOP-62
In short: as §1

LC-2-ad = test system: LC-2-ad
In short: as §1

NCI-H1395 = test system: NCI-H1395
In short: as §1

NCI-H1793 = test system: NCI-H1793
In short: as §1

NCI-H1944 = test system: NCI-H1944
In short: as §1

NCI-H1993 = test system: NCI-H1993
In short: as §1

NCI-H2023 = test system: NCI-H2023
In short: as §1

NCI-H2126 = test system: NCI-H2126
In short: as §1

NCI-H23 = test system: NCI-H23
In short: as §1

NCI-H2405 = test system: NCI-H2405
In short: as §1

NCI-H358 = test system: NCI-H358
In short: as §1

NCI-H838 = test system: NCI-H838
In short: as §1

SK-LU-1 = test system: SK-LU-1
In short: as §1

SMILES: CCN(CC)CCCCNc1ncc2cc(-c3cc(OC)cc(OC)c3)c(NC(=O)NC(C)(C)C)nc2n1 + Nc1ncn([C@H]2C[C@H](O)[C@@H](CO)O2)c(=O)n1 [Decitabine] (partner 2 µM)
- relative viability (ABC-1; first compound 0.03162 µM): 1.17
- relative viability (ABC-1; first compound 0.1 µM): 1.32
- relative viability (ABC-1; first compound 0.3162 µM): 1.06
- relative viability (ABC-1; first compound 1 µM): 1.05
- relative viability (COR-L23; first compound 0.01 µM): 0.4
- relative viability (COR-L23; first compound 0.03162 µM): 0.445
- relative viability (COR-L23; first compound 0.1 µM): 0.461
- relative viability (COR-L23; first compound 0.3162 µM): 0.442
- relative viability (COR-L23; first compound 1 µM): 0.43
- relative viability (ChaGo-K-1; first compound 0.01 µM): 0.563
- relative viability (ChaGo-K-1; first compound 0.03162 µM): 0.516
- relative viability (ChaGo-K-1; first compound 0.1 µM): 0.54
- relative viability (ChaGo-K-1; first compound 0.3162 µM): 0.539
- relative viability (ChaGo-K-1; first compound 1 µM): 0.51
- relative viability (EMC-BAC-2; first compound 0.03162 µM): 1
- relative viability (EMC-BAC-2; first compound 0.1 µM): 0.938
- relative viability (EMC-BAC-2; first compound 0.3162 µM): 0.948
- relative viability (EMC-BAC-2; first compound 1 µM): 0.876
- relative viability (HARA; first compound 0.01 µM): 0.625
- relative viability (HARA; first compound 0.03162 µM): 0.557
- relative viability (HARA; first compound 0.1 µM): 0.636
- relative viability (HARA; first compound 0.3162 µM): 0.649
- relative viability (HARA; first compound 1 µM): 0.317
- relative viability (HCC-15; first compound 0.01 µM): 0.691
- relative viability (HCC-15; first compound 0.03162 µM): 0.635
- relative viability (HCC-15; first compound 0.1 µM): 0.655
- relative viability (HCC-15; first compound 0.3162 µM): 0.68
- relative viability (HCC-15; first compound 1 µM): 0.51
- relative viability (HCC-366; first compound 0.01 µM): 0.316
- relative viability (HCC-366; first compound 0.03162 µM): 0.378
- relative viability (HCC-366; first compound 0.1 µM): 0.368
- relative viability (HCC-366; first compound 0.3162 µM): 0.41
- relative viability (HCC-366; first compound 1 µM): 0.319
- relative viability (HCC-78; first compound 0.01 µM): 0.697
- relative viability (HCC-78; first compound 0.03162 µM): 0.769
- relative viability (HCC-78; first compound 0.1 µM): 0.683
- relative viability (HCC-78; first compound 0.3162 µM): 0.666
- relative viability (HCC-78; first compound 1 µM): 0.636
- relative viability (HOP-62; first compound 0.01 µM): 0.243
- relative viability (HOP-62; first compound 0.03162 µM): 0.207
- relative viability (HOP-62; first compound 0.1 µM): 0.208
- relative viability (HOP-62; first compound 0.3162 µM): 0.207
- relative viability (HOP-62; first compound 1 µM): 0.268
- relative viability (LC-2-ad; first compound 0.01 µM): 0.827
- relative viability (LC-2-ad; first compound 0.03162 µM): 0.81
- relative viability (LC-2-ad; first compound 0.1 µM): 0.823
- relative viability (LC-2-ad; first compound 0.3162 µM): 0.852
- relative viability (LC-2-ad; first compound 1 µM): 0.775
- relative viability (NCI-H1395; first compound 0.01 µM): 0.8
- relative viability (NCI-H1395; first compound 0.03162 µM): 0.685
- relative viability (NCI-H1395; first compound 0.1 µM): 0.743
- relative viability (NCI-H1395; first compound 0.3162 µM): 0.735
- relative viability (NCI-H1395; first compound 1 µM): 0.598
- relative viability (NCI-H1793; first compound 0.01 µM): 0.496
- relative viability (NCI-H1793; first compound 0.03162 µM): 0.464
- relative viability (NCI-H1793; first compound 0.1 µM): 0.56
- relative viability (NCI-H1793; first compound 0.3162 µM): 0.472
- relative viability (NCI-H1793; first compound 1 µM): 0.352
- relative viability (NCI-H1944; first compound 0.01 µM): 0.489
- relative viability (NCI-H1944; first compound 0.03162 µM): 0.435
- relative viability (NCI-H1944; first compound 0.1 µM): 0.427
- relative viability (NCI-H1944; first compound 0.3162 µM): 0.489
- relative viability (NCI-H1944; first compound 1 µM): 0.477
- relative viability (NCI-H1993; first compound 0.01 µM): 0.671
- relative viability (NCI-H1993; first compound 0.03162 µM): 0.584
- relative viability (NCI-H1993; first compound 0.1 µM): 0.508
- relative viability (NCI-H1993; first compound 0.3162 µM): 0.757
- relative viability (NCI-H1993; first compound 1 µM): 0.589
- relative viability (NCI-H2023; first compound 0.01 µM): 0.221
- relative viability (NCI-H2023; first compound 0.03162 µM): 0.268
- relative viability (NCI-H2023; first compound 0.1 µM): 0.232
- relative viability (NCI-H2023; first compound 0.3162 µM): 0.236
- relative viability (NCI-H2023; first compound 1 µM): 0.206
- relative viability (NCI-H2126; first compound 0.01 µM): 0.555
- relative viability (NCI-H2126; first compound 0.03162 µM): 0.568
- relative viability (NCI-H2126; first compound 0.1 µM): 0.556
- relative viability (NCI-H2126; first compound 0.3162 µM): 0.603
- relative viability (NCI-H2126; first compound 1 µM): 0.63
- relative viability (NCI-H23; first compound 0.01 µM): 0.297
- relative viability (NCI-H23; first compound 0.03162 µM): 0.307
- relative viability (NCI-H23; first compound 0.1 µM): 0.292
- relative viability (NCI-H23; first compound 0.3162 µM): 0.355
- relative viability (NCI-H23; first compound 1 µM): 0.326
- relative viability (NCI-H2405; first compound 0.01 µM): 0.778
- relative viability (NCI-H2405; first compound 0.03162 µM): 0.728
- relative viability (NCI-H2405; first compound 0.1 µM): 0.767
- relative viability (NCI-H2405; first compound 0.3162 µM): 0.765
- relative viability (NCI-H2405; first compound 1 µM): 0.702
- relative viability (NCI-H358; first compound 0.01 µM): 0.199
- relative viability (NCI-H358; first compound 0.03162 µM): 0.235
- relative viability (NCI-H358; first compound 0.1 µM): 0.227
- relative viability (NCI-H358; first compound 0.3162 µM): 0.24
- relative viability (NCI-H358; first compound 1 µM): 0.19
- relative viability (NCI-H838; first compound 0.01 µM): 0.481
- relative viability (NCI-H838; first compound 0.03162 µM): 0.484
- relative viability (NCI-H838; first compound 0.1 µM): 0.428
- relative viability (NCI-H838; first compound 0.3162 µM): 0.422
- relative viability (NCI-H838; first compound 1 µM): 0.418
- relative viability (SK-LU-1; first compound 0.01 µM): 0.628
- relative viability (SK-LU-1; first compound 0.03162 µM): 0.608
- relative viability (SK-LU-1; first compound 0.1 µM): 0.59
- relative viability (SK-LU-1; first compound 0.3162 µM): 0.705
- relative viability (SK-LU-1; first compound 1 µM): 0.448
